Series [1] can be described thus: Cytotoxicity: destruction of MT-4 cells not infected with HIV, cultured the same way. The settings on record: human, 5 days of incubation, concentration at which 50 % of the MT-4 cells were destroyed, read-out: 50% cytotoxic concentration to MT-4 cells. Type of series: cell-based. The procedure: (§1) In RPMI 1640 DM culture medium containing 20 mM of Hepes buffer solution, 10 % fetal bovine serum and 20 µg/ml of gentamycin, 3 x 10^4 MT-4 cells (human T cell clone which is destroyed by the infection of HIV) were infected with HIV in an amount of 100 times as large as expected to cause 50 % infection of the cells. Immediately thereafter, a predetermined amount of sample was added to the culture medium using 50 mg/ml sample solutions in dimethyl sulfoxide and the cells were cultured at 37°C.
(§2) After 5 days of incubation, the number of existing cells was counted to determine the concentration of the compound for preventing the death of 50 % of the MT-4 cells. Separately, MT-4 cells were cultured in the same way as above except that they were not infected with HIV to determine the concentration of the compound at which 50 % of the MT-4 cells were destroyed.

The next series has as its system HIV. Nature of the series: Inhibitory activity for HIV infection: prevention of death of HIV-infected MT-4 cells, cell count after 5 days. The settings on record: Human immunodeficiency virus 1, MT4, 120 h, 5 days of incubation at 37°C, concentration preventing the death of 50 % of the MT-4 cells. The format is cell-based. The procedure: Inhibitory activity for HIV infection
as §1, §2

Take `CC(=O)OCCOCn1c(Sc2ccccc2)c(C)c(=O)[nH]c1=S` [Compound 1, 1-[(2-acetoxyethoxy)methyl]-6-phenylthio-2-thiothymine]: the CC50 at 120 h in series [1] is 196 µM. In turn, `CCCOCn1c(Sc2ccccc2)c(C)c(=O)[nH]c1=O` [Compound 38] registered an EC50 in the series on HIV of 5.6 µM. The CC50 at 120 h in series [1] was 147 µM. `CCOCn1c(-c2ccccc2)c(CC)c(=O)[nH]c1=S` [Compound 215, 1-ethoxymethyl-5-ethyl-6-phenylthiouracil]: the EC50 with HIV stood at 0.016 µM. Besides, the CC50 at 120 h in series [1] stood at 133 µM. Regarding `CCCCn1c(-c2ccccc2)c(CC)c(=O)[nH]c1=S` [Compound 220, 1-butyl-5-ethyl-6-phenylthiouracil], a half-maximal effect with HIV (EC50) was put at 0.016 µM. Besides, the CC50 at 120 h in series [1] was found to be 45 µM.

Consider `CCOCn1c(Sc2ccccc2)c(CC)c(=O)[nH]c1=S` [Compound 313, 1-ethoxymethyl-5-ethyl-6-phenylthio-2-thiouracil], for which the CC50 at 120 h in series [1] came to 81 µM. As to `CCOCn1c(Sc2cc(C)cc(C)c2)c(CC)c(=O)[nH]c1=S` [Compound 314], it took 0.004 µM to reach a half-maximal effect in the series with HIV (EC50). The CC50 at 120 h in series [1] was over 100 µM. For `CCOCn1c(Cc2ccccc2)c(CC)c(=O)[nH]c1=O` [Compound 427, 6-benzyl-1-ethoxymethyl-5-ethyluracil], in series [1], the CC50 at 120 h is 245 µM.

The record behind these values is patent publication EP0829476B1, “6-Substituted acyclopyrimidine nucleoside derivatives and antiviral agent containing the same as active ingredient thereof” (MITSUBISHI CHEMICAL CORPORATION, priority 1989, dated 1991).
